According to patent US7230018B2, “Substituted propane-1,3-diamine derivatives and the pharmaceutical use thereof” (Gruenenthal GmbH, priority 2001, dated 2007):

System: phenylquinone-induced writhing in the mouse
Assay: phenylquinone-induced writhing test in the mouse
Format: in vivo
Conditions: male NMRI mice, 10 mg/kg intravenously, phenylquinone intraperitoneally 10 minutes after test substance, writhing counted 5 to 20 minutes after phenylquinone, hydrochloride
Description: Testing of Analgesia in the Writhing Test in the Mouse
The investigation for analgesic activity was carried out in the phenylquinone-induced writhing in the mouse (modified by I. C. Hendershot and J. Forsaith (1959) J. Pharmacol. Exp. Ther. 125, 237-240). Male NMRI mice weighing 25 to 30 g were employed for this. Groups of 10 animals per substance dose received 0.3 ml/mouse of a 0.02% aqueous solution of phenylquinone (phenylbenzoquinone, Sigma, Deisenhofen; preparation of the solution with the addition of 5% ethanol and storage in a water bath at 45° C.) administered intraperitoneally 10 minutes after intravenous administration of the test substances. The animals were placed individually in observation cages. The number of pain-induced stretching movements (so-called writhing reactions=straightening of the body with stretching of the hind extremities) was counted by means of a push-button counter 5 to 20 minutes after the administration of phenylquinone. Animals which received only physiological saline solution were also run as a control. All the substances were tested in the standard dosage of 10 mg/kg. The percentage inhibition (% inhibition) of the writhing reaction by a substance was calculated according to the following formula: […]

Question: For `CN(C)C(c1cccnc1)C1CCCCC1NC(=O)c1ccccc1F.Cl` (stereo not drawn) [Example 6, (anti,anti)-N-[2-(dimethylaminopyridin-3-ylmethyl)cyclohexyl]-2-fluorobenzamide hydrochloride], which “% Inhibition of the writhing reaction (dosage in mg/kg intravenously)” value (from here on “% Inhibition of the writhing reaction”) is on record?
Answer: 62 (10) %

Question: How did the “% Inhibition of the writhing reaction” value turn out when `CC(=O)NC1CCCCC1C(c1cccnc1)N(C)C.Cl` (stereo not drawn) [Example 9, (syn,syn)-N-[2-(dimethylaminopyridin-3-ylmethyl)cyclohexyl]acetamide hydrochloride] was run?
Answer: 75 (10) %

Question: Which “% Inhibition of the writhing reaction” value does the source give for `CC(=O)NC1CCCCC1C(c1cccnc1)N(C)C.Cl` (stereo not drawn) [Example 10, (anti,anti)-N-[2-(dimethylaminopyridin-3-ylmethyl)cyclohexyl]acetamide hydrochloride] here?
Answer: 59 (10) %

Question: Which “% Inhibition of the writhing reaction” value does the source give for `Cc1ccccc1C(=O)NC1CCCCC1C(c1cccnc1)N(C)C.Cl` (stereo not drawn) [Example 4, (syn,syn)-N-[2-(dimethylaminopyridin-3-ylmethyl)cyclohexyl]-2-methylbenzamide hydrochloride] here?
Answer: 34 (10) %

Question: Which “% Inhibition of the writhing reaction” value does the source give for `CN(C)C(c1cccnc1)C1CCCCC1NC(=O)c1ccccc1Cl.Cl` (stereo not drawn) [Example 7, (anti,anti)-2-chloro-N-[2-(dimethylaminopyridin-3-ylmethyl)cyclohexyl]benzamide hydrochloride] here?
Answer: 56 (10) %

Question: For `Cc1ccccc1C(=O)NC1CCCCC1C(c1cccnc1)N(C)C.Cl` (stereo not drawn) [Example 8, (anti,anti)-N-[2-(dimethylaminopyridin-3-ylmethyl)cyclohexyl]-2-methylbenzamide hydrochloride], which “% Inhibition of the writhing reaction” value is on record?
Answer: 40 (10) %

Question: `CN(C)C(c1cccnc1)C1CCCCC1NC(=O)c1ccccc1.Cl` (stereo not drawn) [Example 1, (syn,syn)-N-[2-(dimethylaminopyridin-3-ylmethyl)cyclohexyl]benzamide hydrochloride] was tested. Which “% Inhibition of the writhing reaction” value did it give?
Answer: 54 (10) %

Question: `CN(C)C(c1cccnc1)C1CCCCC1NC(=O)c1ccccc1.Cl` (stereo not drawn) [Example 5, (anti,anti)-N-[2-(dimethylaminopyridin-3-ylmethyl)cyclohexyl]-benzamide hydrochloride] was tested. Which “% Inhibition of the writhing reaction” value did it give?
Answer: 49 (10) %

Question: For `CN(C)C(c1cccnc1)C1CCCCC1NC(=O)c1ccccc1Cl.Cl` (stereo not drawn) [Example 3, (syn,syn)-2-chloro-N-[2-(dimethylaminopyridin-3-ylmethyl)cyclohexyl]-benzamide hydrochloride], which “% Inhibition of the writhing reaction” value is on record?
Answer: 85 (10) %

Question: `CN(C)C(c1cccnc1)C1CCCCC1NC(=O)c1ccccc1F.Cl` (stereo not drawn) [Example 2, (syn,syn)-N-[2-(dimethylaminopyridin-3-ylmethyl)cyclohexyl]-2-fluorobenzamide hydrochloride] was tested. Which “% Inhibition of the writhing reaction” value did it give?
Answer: 67 (10) %
